{
  "source": "patent US8871280B1",
  "about": "“Compositions and methods for treating fungal activity in plants or soil” (The United States of America, as represented by the …, priority 2011, dated 2014)",
  "key": {"[1]": {"system": "cucumber seeds", "assay": "Greenhouse assay of seed germination and phytotoxicity, soil treated with plant extract alone", "conditions": "cucumber, in vivo, 0.3 % of PE in soil (3000 ppm)", "experimental": "Soil treatment: For each treatment, 300 g of dry greenhouse soli (Pro-mix, Premier Horticulture LTD, Red Hill, Pa.) was thoroughly mixed with Rhizoctonia inoculum and incubated for 15 days as described above. […] The infested soil treated with only the carrier solution served as an untreated control. Following the treatment, the soil was thoroughly stirred to mix the contents and incubated in a double polythene bag closed tightly in the dark at room temperature for four days for fumigation to occur. Following the incubation, the bag was opened to allow as much PE to dissipate as possible. This was done by sprinkling the surface soil with sterile water every other day, and stirring the soil once every day for seven days. For assay of effect on seed germination and phytotoxicity of the plant extracts, soil was treated with plant extract formulations alone.\nGreenhouse studies: Treated soil from each treatment was distributed to 4-inch plastic pots into which 12 seeds of cucumbers (95-100% germination) were sown and lightly watered to keep soil moist. The treatments were color coded and pots were randomized across treatment. All plants were kept in a greenhouse between 20° C. (night) to 26° C. (day) with 14 h of light. There were three pots per treatment in each experiment, and the experiment was repeated three times. As positive control, a broad spectrum popular soil fungicide Banrot® 40 WP (The Scotts Company, Ohio) was used following manufacturer's recommendation to control the disease. Total number of seedlings without any sign of damping off in each pot was recorded and percentage of disease suppression were calculated four weeks after sowing cucumber seeds."}, "[2]": {"system": "Rhizoctonia solani", "assay": "Filter disk fumigation method, mycelial growth inhibition on PDA", "assay_type": "cell-based, Rhizoctonia solani AG-4, isolate Rs 23A", "conditions": "for Fumig1 % inhibition: fumigation experiment 1; for Fumig2 % inhibition: fumigation experiment 2"}, "[3]": {"system": "Rhizoctonia solani", "assay": "Greenhouse suppression of damping off of cucumber seedlings in R. solani infested soil amended with plant extract", "assay_type": "in vivo, Rhizoctonia solani AG-4, isolate Rs 23A"}, "[4]": {"system": "Rhizoctonia solani", "assay": "Poison food technique (contact action), mycelial growth inhibition in PDA", "assay_type": "cell-based, Rhizoctonia solani AG-4, isolate Rs 23A", "conditions": "for PoisonB1 % inhibition: poison bed experiment 1; for PoisonB2 % inhibition: poison bed experiment 2"}, "[5]": {"system": "Rhizoctonia solani", "assay": "Fungicidal vs fungistatic potential (regrowth of mycelial plugs on fresh PDA, 7 days)", "assay_type": "cell-based, Rhizoctonia solani AG-4, isolate Rs 23A"}},
  "data": [
    {"smiles": "Cc1ccc(C(C)C)c(O)c1", "note": "[Thymol]", "values": [
      {"measurement": "Avg. seed germination (+ PE only)", "setting": "[1]", "result": 8.00},
      {"measurement": "Fumig1 % inhibition", "setting": "[2]; amount oil 15 μL/20 mL plate", "result": 77, "unit": "%"},
      {"measurement": "Fumig2 % inhibition", "setting": "[2]; amount oil 15 μL/20 mL plate", "result": 91, "unit": "%"},
      {"measurement": "Fumig1 % inhibition", "setting": "[2]; amount oil 30 μL/20 mL plate", "result": 86, "unit": "%"},
      {"measurement": "Fumig2 % inhibition", "setting": "[2]; amount oil 30 μL/20 mL plate", "result": 93, "unit": "%"},
      {"measurement": "Fumig1 % inhibition", "setting": "[2]; amount oil 45 μL/20 mL plate", "result": 90, "unit": "%"},
      {"measurement": "Fumig2 % inhibition", "setting": "[2]; amount oil 45 μL/20 mL plate", "result": 94, "unit": "%"},
      {"measurement": "Fumig1 % inhibition", "setting": "[2]; amount oil 60 μL/20 mL plate", "result": 89, "unit": "%"},
      {"measurement": "Fumig1 % inhibition", "setting": "[2]; amount oil 75 μL/20 mL plate", "result": 93, "unit": "%"},
      {"measurement": "Fumig1 % inhibition", "setting": "[2]; amount oil 150 μL/20 mL plate", "result": 96, "unit": "%"},
      {"measurement": "% Disease suppression (+ PE + R. solani)", "setting": "[3]; cucumber damping off, soil amendment at 0.3% (v/w), four weeks after sowing", "result": 27.75, "unit": "%"},
      {"measurement": "Avg. seed Germination (+ PE + R. solani)", "setting": "[3]; cucumber, 12 seeds sown per pot, infested soil amended with 0.3% PE", "result": 3.33},
      {"measurement": "PoisonB1 % inhibition", "setting": "[4]; amount oil 15 μL/20 mL plate", "result": 100, "unit": "%"},
      {"measurement": "PoisonB2 % inhibition", "setting": "[4]; amount oil 15 μL/20 mL plate", "result": 42, "unit": "%"},
      {"measurement": "PoisonB1 % inhibition", "setting": "[4]; amount oil 30 μL/20 mL plate", "result": 100, "unit": "%"},
      {"measurement": "PoisonB2 % inhibition", "setting": "[4]; amount oil 30 μL/20 mL plate", "result": 100, "unit": "%"},
      {"measurement": "PoisonB1 % inhibition", "setting": "[4]; amount oil 45 μL/20 mL plate", "result": 100, "unit": "%"},
      {"measurement": "PoisonB2 % inhibition", "setting": "[4]; amount oil 45 μL/20 mL plate", "result": 100, "unit": "%"},
      {"measurement": "PoisonB1 % inhibition", "setting": "[4]; amount oil 60 μL/20 mL plate", "result": 100, "unit": "%"},
      {"measurement": "PoisonB2 % inhibition", "setting": "[4]; amount oil 60 μL/20 mL plate", "result": 100, "unit": "%"},
      {"measurement": "PoisonB1 % inhibition", "setting": "[4]; amount oil 75 μL/20 mL plate", "result": 100, "unit": "%"},
      {"measurement": "PoisonB2 % inhibition", "setting": "[4]; amount oil 75 μL/20 mL plate", "result": 100, "unit": "%"},
      {"measurement": "PoisonB1 % inhibition", "setting": "[4]; amount oil 150 μL/20 mL plate", "result": 100, "unit": "%"},
      {"measurement": "PoisonB2 % inhibition", "setting": "[4]; amount oil 150 μL/20 mL plate", "result": 100, "unit": "%"},
      {"measurement": "Effect (fumigation)", "setting": "[5]; amount oil 15 μL/20 mL plate", "result": "S"},
      {"measurement": "Effect (poison bed, contact action)", "setting": "[5]; amount oil 15 μL/20 mL plate", "result": "S"},
      {"measurement": "Effect (fumigation)", "setting": "[5]; amount oil 30 μL/20 mL plate", "result": "S"},
      {"measurement": "Effect (poison bed, contact action)", "setting": "[5]; amount oil 30 μL/20 mL plate", "result": "S"},
      {"measurement": "Effect (fumigation)", "setting": "[5]; amount oil 45 μL/20 mL plate", "result": "S"},
      {"measurement": "Effect (poison bed, contact action)", "setting": "[5]; amount oil 45 μL/20 mL plate", "result": "S"},
      {"measurement": "Effect (fumigation)", "setting": "[5]; amount oil 60 μL/20 mL plate", "result": "S"},
      {"measurement": "Effect (poison bed, contact action)", "setting": "[5]; amount oil 60 μL/20 mL plate", "result": "S"},
      {"measurement": "Effect (fumigation)", "setting": "[5]; amount oil 75 μL/20 mL plate", "result": "S"},
      {"measurement": "Effect (poison bed, contact action)", "setting": "[5]; amount oil 75 μL/20 mL plate", "result": "S"},
      {"measurement": "Effect (fumigation)", "setting": "[5]; amount oil 150 μL/20 mL plate", "result": "S"},
      {"measurement": "Effect (poison bed, contact action)", "setting": "[5]; amount oil 150 μL/20 mL plate", "result": "S"},
      {"measurement": "Fungicidal vs fungistatic nature", "setting": "[5]; in vitro, fumigation and contact action", "result": "fungistatic"}
    ]}
  ]
}
